Legend:
[1] = test system: Aspc-1; assay: CCK-8 proliferation inhibition of pancreatic cancer cells; type: cell-based; conditions: 72 h
From the text: (§1) Three pancreatic cancer cell lines (Aspc-1, Bxpc-3, Panc-1) and the hepatocyte cell line LO2 used in the experiments were provided by Peking University People's Hospital and the Institute of Materia Medica, Chinese Academy of Medical Sciences. The culture conditions for Aspc-1 and Bxpc-3 cells were RPMI 1640 medium (Gibco, Thermo Fisher Scientific, USA) supplemented with 10% fetal bovine serum (HyClone, Thermo Fisher Scientific, USA) and 1% penicillin/streptomycin (Life Technologies, Thermo Fisher Scientific, USA). The culture conditions for Panc-1 and LO2 cells were DMEM medium (Gibco, Thermo Fisher Scientific, USA) supplemented with 10% fetal bovine serum (HyClone, Thermo Fisher Scientific, USA) and 1% penicillin/streptomycin (Life Technologies, Thermo Fisher Scientific, USA). Cell culture was conducted at 37°C with adequate humidity and 5% CO2 concentration.
(§2) Three types of pancreatic cancer cells (Aspc-1, Bxpc-3, Panc-1) were seeded into 96-well plates at a density of 5×10^3 cells/well (100 µL). After the cells adhered, gemcitabine (50 µM), compound 2-11 (140-mer 2-11, 50 µM), 2-30 (70-mer 2-30, 50 µM), 2-31 (40-mer 2-31, 50 µM), 2-32 (30-mer 2-32, 50 µM), 2-33 (10-mer A 2-33, 50 µM), 2-34 (10-mer B 2-34, 50 µM), 2-35 (5-mer A 2-35, 50 µM), 2-36 (5-mer B 2-36, 50 µM), and 2-37 (5-mer C 2-37, 50 µM) were added, respectively. The cells were co-incubated for 72 h. Then, 10 µL of CCK-8 reagent was added to each well and incubated at 37°C for 2 h. After thorough mixing, the absorbance at 450 nm was measured by using a microplate reader. A cell survival rate was calculated by using the following formula: Cell survival rate(%) = (ODsample−OD_blank)/(OD_control−OD_blank) × 100%. [formula]
(§3) Three types of pancreatic cancer cells (Aspc-1, Bxpc-3, and Panc-1) were seeded into 96-well plates at a density of 5×10^3 cells/well (100 µL). After the cells adhered, different concentrations of compound 2-34 (3.125 µM, 6.25 µM, 12.5 µM, 25 µM, 50 µM, 100 µM) were added. The cells were co-incubated for 72 h. Then, 10 µL of CCK-8 reagent was added to each well and incubated at 37°C for 2 h. After thorough mixing, the absorbance at 450 nm was measured by using a microplate reader, and the cell survival rate was calculated.

[2] = test system: Bxpc-3; assay: as above; type: cell-based; conditions: 72 h
From the text: as §1, §2, §3

[3] = test system: Panc-1; assay: as above; type: cell-based; conditions: 72 h
From the text: as §1, §2, §3

[4] = test system: LO2 hepatocytes; assay: CCK-8 cytotoxicity on hepatocytes; type: cell-based, human; conditions: concentration up to 100 µM, 72 h
From the text: as §1
LO2 hepatocytes were seeded into 96-well plates at a density of 5×10^3 cells/well (100 µL). After the cells adhered, different concentrations of compound 2-34 (3.125 µM, 6.25 µM, 12.5 µM, 25 µM, 50 µM, 100 µM) and the positive control drug gemcitabine (3.125 µM, 6.25 µM, 12.5 µM, 25 µM, 50 µM, 100 µM) were added, respectively. The cells were co-incubated for 72 h. […] After thorough mixing, the absorbance at 450 nm was measured by using a microplate reader, and the cell survival rate was calculated.

[5] = test system: Panc-1 cells; assay: Apoptosis, Annexin V-FITC/PI double staining with flow cytometry; type: cell-based; conditions: 72 h
Protocol: Pancreatic cancer Panc-1 cells were seeded into 24-well plates at a density of 3×10^4 cells/well. After the cells adhered, different concentrations of compound 2-34 (25 µM, 50 µM, 100 µM) were added and co-incubated for 72 h. All cells were collected, washed 2 times with PBS, and resuspended in binding buffer (Beyotime, Shanghai, China). Then, 5 µL of Annexin V-FITC (fluorescein isothiocyanate) and 10 µL of PI (propidium iodide) dye were added in sequence, and the cells were stained in the dark for 20 min. The apoptosis rate was detected by using a flow cytometer (Beckman CytoFLEX), and the specific apoptosis ratio was analyzed by using CytoFLEX software.

[6] = test system: Panc-1 cells; assay: Cell cycle, PI staining with flow cytometry; type: cell-based; conditions: 72 h
Protocol: Pancreatic cancer Panc-1 cells were seeded into 24-well plates at a density of 6×10^4 cells/well. After the cells adhered, different concentrations of compound 2-34 (25 µM, 50 µM, 100 µM) were added and co-incubated for 72 h. All cells were collected, washed 2 times with PBS, and fixated in 70% (volume fraction) ethanol overnight. The fixated cells were collected, washed 2 times with PBS, and stained with PI staining solution containing RNase (ribonuclease) in the dark for 30 min. The nucleic acid content in the cells was detected by using a flow cytometer, and the percentage of cells in each cycle phase was analyzed by using ModFit software.

Row | Compound | inhibition rates ([1]; Aspc-1, 50 µM) | proliferation inhibition, concentration dependence ([1]; Aspc-1, 3.125-100 µM) | inhibition rates ([2]; Bxpc-3, 50 µM) | proliferation inhibition, concentration dependence ([2]; Bxpc-3, 3.125-100 µM) | inhibition rates ([3]; Panc-1, 50 µM) | proliferation inhibition, concentration dependence ([3]; Panc-1, 3.125-100 µM) | cytotoxicity towards the growth of LO2 hepatocytes [4] | apoptosis rate ([5]; Panc-1, 25 µM) | apoptosis rate ([5]; Panc-1, 50 µM) | apoptosis rate ([5]; Panc-1, 100 µM) | number of cells in the G2 phase ([6]; Panc-1, 25 µM, 50 µM, 100 µM) | proportion of cells in the G1 phase ([6]; Panc-1, 25 µM) | proportion of cells in the S phase ([6]; Panc-1, 25 µM) | proportion of cells in the G1 phase ([6]; Panc-1, 50 µM) | proportion of cells in the S phase ([6]; Panc-1, 50 µM) | proportion of cells in the G1 phase ([6]; Panc-1, 100 µM) | proportion of cells in the S phase ([6]; Panc-1, 100 µM) | inhibition at 50 µM ([1]; Homo sapiens, ASPC1, Aspc-1, 50 µM, read-out: inhibition rates) | inhibition at 50 µM ([3]; Homo sapiens, Panc-1, 50 µM, read-out: inhibition rates)
1 | Octylβ-D-galactopyranosyl-(1→6)-β-D-galactopyranosyl-(1→6)-β-D-galactopyranosyl-( 1→6)-{α-L-arabinofuranosyl-(1→5)-α-L-arabinofuranosyl-(1→5)-α-L-arabinofuransyl-(1→5)-[ β-D-galactopyranosyl-(1→3)]-α-L-arabinofuranosyl-(1→3)-β-D-galactopyranosyl-(1→3)}-β-D-galactopyranoside [compound 2-34] | 74.9% | significant concentration dependence | 29.5% | significant concentration dependence | 72.1% | significant concentration dependence | no cytotoxicity | 31.99% | 31.92% | 67.59% | remains relatively stable with minor changes | 51.33% | 22.19% | 46.99% | 27.66% | 42.43% | 36.29% |  | 
2 | Nc1ccn([C@@H]2O[C@H](CO)[C@@H](O)C2(F)F)c(=O)n1 [gemcitabine, reference compound] |  |  |  |  |  |  |  |  |  |  |  |  |  |  |  |  |  | 61.4% | 23.2%
